Assay results reported in article PMC7036018 (ACS chemical biology, 2020).

Columns and labels:
P. aeruginosa [1] = details: cited from earlier work
P. aeruginosa [2] = experiment: PqsE-dependent pyocyanin production; type: cell-based, Pseudomonas aeruginosa; details: 100 μM, overnight at 37°C, OD695
P. aeruginosa [3] = experiment: Mass spectrometry of compound levels in cell-free culture fluid and cell lysate; type: cell-based, Pseudomonas aeruginosa; details: positive control

Question: Which “effect on in vivo pyocyanin production levels” value (P. aeruginosa [1]) does the source give for `O=C(O)c1ccccc1-c1cccnc1` [Compound C1, 2-(pyridin-3’-yl) benzoic acid] here?
Answer: does not affect in vivo pyocyanin production levels

Question: Which “effect on pyocyanin production” value (P. aeruginosa [2]) does the source give for meta-bromo-thiolactone [mBTL] here?
Answer: known inhibitor of pyocyanin production

Question: What about the “concentration in cell lysate over time” value (P. aeruginosa [3]) of the same molecule?
Answer: increased

Question: And the “concentration in cell-free culture fluid over time” value (P. aeruginosa [3])?
Answer: progressively decreased
